System: whole neuron
Assay: Release of a caged neurotransmitter in situ: whole-cell current of a neuron before and on photolysis
Format: cell-based
Text: FIG. 2: The photolysis of a caged probe in situ, as described in Example 15.
A whole neuron is bathed in a solution of γ-(α-carboxy o-nitrobenzyl)-caged glutamic acid (3), as described in Example 1. The whole-cell current is then monitored as the neuron is photolyrically illuminated at 343 nm. […] This indicates both that the uncaging of a CNB-caged probe is extremely rapid, but also verifies that the caged neurotransmitter is inert in situ until uncaged.

Q: Which “whole-cell current on photolytic illumination” value (illumination at 343 nm, begun at time=0 ms, FIG. 2) does the source give for `N[C@@H](CCC(=O)OC(C(=O)O)c1ccccc1[N+](=O)[O-])C(=O)O` (stereo partly drawn) [Compound 3, L-Glutamic Acid, γ-(α-carboxy-o-nitrobenzyl) ester] here?
A: increases rapidly

Q: And the “activity of the caged neurotransmitter in situ before uncaging (whole-cell current)” value (whole neuron bathed in solution of caged glutamic acid, before illumination)?
A: inert

— US5635608A, “α-carboxy caged compounds” (Molecular Probes, Inc., priority 1994, dated 1997)
